Earlier results, collected in patent US8354566B2, “Lubricating oil additive and lubricating oil composition containing same” (Chevron Oronite Company LLC, priority 2010, dated 2013).

System: estrogen-inducible strain of yeast
Conditions: compared among alkylphenols and with 17β-estradiol

## CC(C)(C)CC(C)(C)c1ccc(O)cc1 [4-tert-octylphenol, 4-(1,1,3,3-Tetramethyl-butyl)-phenol]
  estrogenic activity: highest activity
